# What was measured:
# Details in all cases: 1 µM; inhibitor
# [1] = biological target: ABL1 (Homo sapiens, UniProt P00519)
# [2] = biological target: RPS6KA1 (Homo sapiens, UniProt Q15418)
# [3] = biological target: HCK (Homo sapiens, UniProt P08631)
# [4] = biological target: FGR (Homo sapiens, UniProt P09769)
# [5] = biological target: FGFR4 (Homo sapiens, UniProt P22455)
# [6] = biological target: DCAMKL2 (Homo sapiens, UniProt Q8N568)
# [7] = biological target: SRMS (Homo sapiens, UniProt Q9H3Y6)
# [8] = biological target: WNK3 (Homo sapiens, UniProt Q9BYP7)
# [9] = biological target: CAMK2B (Homo sapiens, UniProt Q13554)
# [10] = biological target: VRK1 (Homo sapiens, UniProt Q99986)
# [11] = biological target: LKB1/MO25a/STRADa (Homo sapiens, UniProt Q15831)
# [12] = biological target: DMPK (Homo sapiens, UniProt Q09013)
# [13] = biological target: ALK (Homo sapiens, UniProt Q9UM73)
# [14] = biological target: EPHA3 (Homo sapiens, UniProt P29320)
# [15] = biological target: CDK20/CycT1 (Homo sapiens, UniProt Q8IZL9)
# [16] = biological target: RIPK2 (Homo sapiens, UniProt O43353)
# [17] = biological target: ACVRL1 (Homo sapiens, UniProt P37023)
# [18] = biological target: ROS (Homo sapiens, UniProt P08922)
# [19] = biological target: MKNK2 (Homo sapiens, UniProt Q9HBH9)
# [20] = biological target: RPS6KB1 (Homo sapiens, UniProt P23443)
# [21] = biological target: NIK (Homo sapiens, UniProt Q99558)
# [22] = biological target: CK2a2 (Homo sapiens, UniProt P19784)
# [23] = biological target: MKK4 (Homo sapiens, UniProt P45985)
# [24] = biological target: TGFBR2 (Homo sapiens, UniProt P37173)
# [25] = biological target: ZAP70 (Homo sapiens, UniProt P43403)
# [26] = biological target: PDGFRa (Homo sapiens, UniProt P16234)
# [27] = biological target: DAPK3 (Homo sapiens, UniProt O43293)
# [28] = biological target: p38d (Homo sapiens, UniProt O15264)
# [29] = biological target: RIPK5 (Homo sapiens, UniProt Q6XUX3)
# [30] = biological target: IKKb (Homo sapiens, UniProt O14920)
# [31] = biological target: CDK19 (Homo sapiens, UniProt Q9BWU1)
# Chain of MKK4 (P45985 whole entry): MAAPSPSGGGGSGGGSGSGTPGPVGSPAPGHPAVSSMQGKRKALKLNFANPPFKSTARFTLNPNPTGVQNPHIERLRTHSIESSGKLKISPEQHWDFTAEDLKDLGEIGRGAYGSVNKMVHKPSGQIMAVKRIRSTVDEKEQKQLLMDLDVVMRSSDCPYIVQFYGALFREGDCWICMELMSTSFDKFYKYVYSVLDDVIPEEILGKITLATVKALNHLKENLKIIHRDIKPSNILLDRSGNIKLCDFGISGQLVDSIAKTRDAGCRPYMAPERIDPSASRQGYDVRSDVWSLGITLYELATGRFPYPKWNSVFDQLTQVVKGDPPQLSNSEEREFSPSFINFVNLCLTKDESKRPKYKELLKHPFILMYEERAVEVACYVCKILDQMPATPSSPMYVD
# Chain of VRK1 (Q99986 whole entry): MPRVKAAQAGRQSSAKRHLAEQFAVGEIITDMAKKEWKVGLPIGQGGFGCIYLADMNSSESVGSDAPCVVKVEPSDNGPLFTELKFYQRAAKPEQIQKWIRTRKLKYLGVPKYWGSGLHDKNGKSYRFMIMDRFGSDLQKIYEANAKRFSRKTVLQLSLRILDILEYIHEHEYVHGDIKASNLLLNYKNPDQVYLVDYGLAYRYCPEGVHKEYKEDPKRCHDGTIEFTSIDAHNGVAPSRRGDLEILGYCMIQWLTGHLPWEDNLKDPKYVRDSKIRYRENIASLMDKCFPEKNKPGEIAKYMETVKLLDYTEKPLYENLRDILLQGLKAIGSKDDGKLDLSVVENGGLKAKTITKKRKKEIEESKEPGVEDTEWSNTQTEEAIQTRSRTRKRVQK
# Chain of RPS6KB1 (P23443 whole entry): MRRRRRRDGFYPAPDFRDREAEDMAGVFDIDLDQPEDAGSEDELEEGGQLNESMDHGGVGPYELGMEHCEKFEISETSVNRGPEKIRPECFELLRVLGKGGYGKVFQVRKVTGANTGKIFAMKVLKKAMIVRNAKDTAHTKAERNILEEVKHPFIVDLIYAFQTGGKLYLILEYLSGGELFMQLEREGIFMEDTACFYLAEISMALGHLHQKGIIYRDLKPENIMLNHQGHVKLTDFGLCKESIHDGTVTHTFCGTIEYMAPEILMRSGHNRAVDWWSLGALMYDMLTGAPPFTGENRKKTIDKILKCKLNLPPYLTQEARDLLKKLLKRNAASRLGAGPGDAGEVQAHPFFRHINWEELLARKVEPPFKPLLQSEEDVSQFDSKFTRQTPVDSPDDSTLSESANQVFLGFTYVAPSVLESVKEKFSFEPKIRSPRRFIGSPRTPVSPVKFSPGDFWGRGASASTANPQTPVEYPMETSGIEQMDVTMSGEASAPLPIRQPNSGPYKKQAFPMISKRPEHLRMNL
# Chain of DMPK (Q09013 whole entry): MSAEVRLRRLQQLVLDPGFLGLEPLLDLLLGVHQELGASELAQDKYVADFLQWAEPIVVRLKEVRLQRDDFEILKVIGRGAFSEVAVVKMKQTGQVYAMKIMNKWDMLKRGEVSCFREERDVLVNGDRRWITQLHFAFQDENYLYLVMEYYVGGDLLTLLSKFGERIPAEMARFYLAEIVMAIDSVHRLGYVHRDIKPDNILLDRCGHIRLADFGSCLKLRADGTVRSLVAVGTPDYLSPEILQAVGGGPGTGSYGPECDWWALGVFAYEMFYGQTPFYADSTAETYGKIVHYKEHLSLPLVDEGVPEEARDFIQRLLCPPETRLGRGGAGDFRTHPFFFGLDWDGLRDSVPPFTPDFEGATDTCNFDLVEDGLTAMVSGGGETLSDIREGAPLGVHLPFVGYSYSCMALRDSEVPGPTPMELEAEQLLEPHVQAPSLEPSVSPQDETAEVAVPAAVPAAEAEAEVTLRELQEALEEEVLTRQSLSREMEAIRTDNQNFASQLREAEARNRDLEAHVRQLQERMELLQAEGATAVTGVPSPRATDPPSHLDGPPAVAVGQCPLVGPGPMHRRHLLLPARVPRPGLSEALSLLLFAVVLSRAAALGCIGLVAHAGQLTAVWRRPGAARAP
# Chain of RIPK2 (O43353 whole entry): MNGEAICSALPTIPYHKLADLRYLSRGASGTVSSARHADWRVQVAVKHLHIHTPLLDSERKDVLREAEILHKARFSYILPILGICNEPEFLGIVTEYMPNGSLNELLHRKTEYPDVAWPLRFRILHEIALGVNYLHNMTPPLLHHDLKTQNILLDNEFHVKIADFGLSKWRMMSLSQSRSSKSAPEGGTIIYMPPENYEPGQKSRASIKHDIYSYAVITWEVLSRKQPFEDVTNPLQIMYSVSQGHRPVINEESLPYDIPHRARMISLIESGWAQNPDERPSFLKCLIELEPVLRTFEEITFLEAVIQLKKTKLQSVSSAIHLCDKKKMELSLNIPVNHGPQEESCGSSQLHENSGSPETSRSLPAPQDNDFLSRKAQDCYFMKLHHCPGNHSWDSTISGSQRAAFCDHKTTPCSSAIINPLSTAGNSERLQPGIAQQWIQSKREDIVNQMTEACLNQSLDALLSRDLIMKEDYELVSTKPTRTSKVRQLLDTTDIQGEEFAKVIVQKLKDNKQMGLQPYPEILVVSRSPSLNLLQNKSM
# Chain of HCK (P08631 whole entry): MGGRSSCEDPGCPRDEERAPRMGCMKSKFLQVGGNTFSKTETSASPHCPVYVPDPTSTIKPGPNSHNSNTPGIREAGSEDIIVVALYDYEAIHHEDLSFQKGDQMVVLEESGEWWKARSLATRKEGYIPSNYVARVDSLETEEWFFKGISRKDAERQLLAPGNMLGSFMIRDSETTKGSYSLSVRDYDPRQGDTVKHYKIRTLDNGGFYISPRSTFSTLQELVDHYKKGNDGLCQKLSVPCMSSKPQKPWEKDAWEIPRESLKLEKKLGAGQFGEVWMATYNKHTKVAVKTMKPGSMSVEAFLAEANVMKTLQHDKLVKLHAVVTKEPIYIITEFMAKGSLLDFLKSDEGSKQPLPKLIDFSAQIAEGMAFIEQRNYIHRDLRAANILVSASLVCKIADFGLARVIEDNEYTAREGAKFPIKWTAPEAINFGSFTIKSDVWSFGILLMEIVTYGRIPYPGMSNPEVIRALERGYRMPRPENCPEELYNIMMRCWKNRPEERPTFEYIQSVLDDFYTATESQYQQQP
# Chain of DAPK3 (O43293 whole entry): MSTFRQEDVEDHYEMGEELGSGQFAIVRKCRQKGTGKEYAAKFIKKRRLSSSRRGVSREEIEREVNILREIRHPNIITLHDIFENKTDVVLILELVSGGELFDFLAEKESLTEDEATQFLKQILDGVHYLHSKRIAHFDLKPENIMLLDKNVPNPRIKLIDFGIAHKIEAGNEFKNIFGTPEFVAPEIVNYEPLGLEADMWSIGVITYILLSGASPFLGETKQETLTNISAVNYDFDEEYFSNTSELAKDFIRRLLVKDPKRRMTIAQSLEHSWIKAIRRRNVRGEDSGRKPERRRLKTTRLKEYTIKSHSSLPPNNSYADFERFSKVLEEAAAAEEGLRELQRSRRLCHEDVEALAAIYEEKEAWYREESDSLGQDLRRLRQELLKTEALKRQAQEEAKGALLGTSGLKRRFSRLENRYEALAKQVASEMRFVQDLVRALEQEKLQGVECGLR
# Chain of TGFBR2 (P37173 whole entry): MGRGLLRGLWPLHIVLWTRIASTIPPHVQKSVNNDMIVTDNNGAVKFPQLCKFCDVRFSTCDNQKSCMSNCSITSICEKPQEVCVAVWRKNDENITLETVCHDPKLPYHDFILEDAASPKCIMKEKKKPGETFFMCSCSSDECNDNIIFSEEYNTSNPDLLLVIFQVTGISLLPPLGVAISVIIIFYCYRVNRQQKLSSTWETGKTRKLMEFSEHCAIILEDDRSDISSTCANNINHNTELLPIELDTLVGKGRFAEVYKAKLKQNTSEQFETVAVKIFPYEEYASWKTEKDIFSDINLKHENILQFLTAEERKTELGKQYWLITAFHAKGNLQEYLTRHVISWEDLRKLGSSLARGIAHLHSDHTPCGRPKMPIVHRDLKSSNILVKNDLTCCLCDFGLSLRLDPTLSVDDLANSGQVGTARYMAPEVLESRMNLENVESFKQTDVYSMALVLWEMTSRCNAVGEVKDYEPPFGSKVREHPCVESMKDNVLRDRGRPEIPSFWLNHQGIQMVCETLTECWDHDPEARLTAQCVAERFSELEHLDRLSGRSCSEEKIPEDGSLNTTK
# Chain of MKNK2 (Q9HBH9 whole entry): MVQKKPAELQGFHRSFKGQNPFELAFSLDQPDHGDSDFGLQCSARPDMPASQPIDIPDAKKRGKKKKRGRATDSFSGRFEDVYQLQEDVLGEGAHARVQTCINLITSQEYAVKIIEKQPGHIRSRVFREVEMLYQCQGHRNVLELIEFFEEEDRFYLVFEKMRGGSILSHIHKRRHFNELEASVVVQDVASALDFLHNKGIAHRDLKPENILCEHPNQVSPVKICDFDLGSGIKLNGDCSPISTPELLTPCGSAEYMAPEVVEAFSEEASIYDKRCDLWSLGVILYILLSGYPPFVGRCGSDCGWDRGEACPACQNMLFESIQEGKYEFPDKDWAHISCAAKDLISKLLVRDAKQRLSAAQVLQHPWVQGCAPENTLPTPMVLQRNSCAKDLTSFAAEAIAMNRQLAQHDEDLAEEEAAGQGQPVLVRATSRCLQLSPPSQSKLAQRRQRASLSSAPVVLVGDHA
# Chain of CK2a2 (P19784 whole entry): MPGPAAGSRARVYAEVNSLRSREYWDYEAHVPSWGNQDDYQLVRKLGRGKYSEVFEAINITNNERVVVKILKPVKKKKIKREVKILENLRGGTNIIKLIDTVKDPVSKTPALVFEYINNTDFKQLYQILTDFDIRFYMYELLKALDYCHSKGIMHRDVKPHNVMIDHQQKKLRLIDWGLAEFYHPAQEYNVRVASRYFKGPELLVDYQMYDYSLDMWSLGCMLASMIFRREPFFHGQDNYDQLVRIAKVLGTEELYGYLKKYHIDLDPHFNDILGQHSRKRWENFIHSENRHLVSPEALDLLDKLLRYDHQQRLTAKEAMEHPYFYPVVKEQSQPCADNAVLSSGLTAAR
smiles,measurement,setting,value
"O=C1NCCCCCNc2nc(c3ccccc3n2)Nc2cc1[nH]n2 [21c, (Z)-3^1H-2,5,11-triaza-1(4,2)-quinazolina-3(3,5)-pyrazolacycloundecaphan-4-one]","21c Remaining activity, percent of control [%]",[1],106.1%
same,"21c Remaining activity, percent of control [%]",[2],90.5%
same,"21c Remaining activity, percent of control [%]",[3],94.0%
same,"21c Remaining activity, percent of control [%]",[4],75.3%
same,"21c Remaining activity, percent of control [%]",[5],96.9%
same,"21c Remaining activity, percent of control [%]",[6],99.3%
same,"21c Remaining activity, percent of control [%]",[7],81.5%
same,"21c Remaining activity, percent of control [%]",[8],98.5%
same,"21c Remaining activity, percent of control [%]",[9],88.8%
same,"21c Remaining activity, percent of control [%]",[10],91.5%
same,"21c Remaining activity, percent of control [%]",[11],105.1%
same,"21c Remaining activity, percent of control [%]",[12],94.3%
same,"21c Remaining activity, percent of control [%]",[13],100.1%
same,"21c Remaining activity, percent of control [%]",[14],97.7%
same,"21c Remaining activity, percent of control [%]",[15],89.1%
same,"21c Remaining activity, percent of control [%]",[16],105.0%
same,"21c Remaining activity, percent of control [%]",[17],91.0%
same,"21c Remaining activity, percent of control [%]",[18],109.6%
same,"21c Remaining activity, percent of control [%]",[19],105.8%
same,"21c Remaining activity, percent of control [%]",[20],86.2%
same,"21c Remaining activity, percent of control [%]",[21],68.5%
same,"21c Remaining activity, percent of control [%]",[22],85.6%
same,"21c Remaining activity, percent of control [%]",[23],127.3%
same,"21c Remaining activity, percent of control [%]",[24],81.8%
same,"21c Remaining activity, percent of control [%]",[25],108.6%
same,"21c Remaining activity, percent of control [%]",[26],102.0%
same,"21c Remaining activity, percent of control [%]",[27],107.0%
same,"21c Remaining activity, percent of control [%]",[28],94.8%
same,"21c Remaining activity, percent of control [%]",[29],122.0%
same,"21c Remaining activity, percent of control [%]",[30],94.0%
same,"21c Remaining activity, percent of control [%]",[31],92.8%
